According to US6900239B2, “Tumor chemopotentiation using isocoumarin derivatives” (ILWZ ILEX Products, Inc., priority 2000, dated 2005):

Key:
[1] = test system: MM1.S human multiple myeloma cells; test: Apoptosis by annexin V-FITC and PI staining; format: cell-based
Procedure: Apoptosis was determined by staining cells with annexin V-FITC and propidium iodide (PI). Cells were treated with DEX in the presence or absence of NM-3. NM-3 was added 2 hours before the addition of DEX. After 24 hours of DEX exposure, cells were washed twice with cold PBS, resuspended in binding buffer (10 mM HEPES/NaOH (pH 7.4), 140 mM NaCl, 2.5 mM CaCl2), and then stained with annexin V-FITC (Clontech Laboratories) and PI (Boehringer-Manheim). Apoptosis was analyzed by using a flow cytometer (EPICS XL-MCL, Coulter Corp). The cultured cells were also subjected to cell cycle analysis. Briefly, cells were washed twice with PBS and fixed with 70% ethanol. Cells were then washed with 0.5 ml PBS and 1.0 ml phosphate-citric acid buffer (0.2 M Na2HPO4 and 0.1 M citric acid (pH 7.8)), treated with 200 μg/ml RNase for 15 min at 37° C., and stained with 50 μg/ml PI for 30 min at room temperature in the dark. Cells were filtered through 35-μm diameter mesh to remove clumps. Nuclear staining was analyzed by a flow cytometer. Cells with fractional DNA content located on DNA frequency histograms to the left of the G1 peak (sub-G1 cells) were identified as apoptotic cells.

[2] = test system: Ehrlich carcinoma; test: Ehrlich solid tumor growth; format: in vivo, ICR mice; details: for Inhibition (%): days 1~14; for Mean Tumor Weight (mg ± S.D.): days 1~14, measured day 15
Procedure: To determine the antitumor effect of NM-3 on growth of a solid tumor in vivo, 4×10^6 Ehrlich carcinoma cells per mouse were subcutaneously transplanted into ICR mice (female, 6 weeks old) in the inguinal area. NM-3 was continuously administered via the oral route for 14 days. Tumor weights were then measured on day 15 (Table 2). […] Thus, NM-3 treatment is associated with a significant reduction in the growth of solid tumors.

[3] = test system: colon 26 adenocarcinoma; test: Combination with cyclophosphamide, survival; format: in vivo, BALB/c mice
Procedure: To determine the effect on tumor growth of NM-3 treatment combined with simultaneous cyclophosphamide treatment, colon 26 adenocarcinoma cells (5×10^4 cells per mouse) were subcutaneously transplanted into BALB/c mice (female, 7 weeks old) in the inguinal area. NM-3 was continuously orally administered from day 1 to day 72 after the transplantation except on day 14 when cyclophosphamide was dosed.

[4] = test system: U266 cells; test: Cell viability by MTT assay; format: cell-based, human
Procedure: (§1) The human multiple myeloma cell line MM1.S was maintained in RPMI1640 medium supplemented with 10% fetal bovine serum, 100 units/ml penicillin, and 100 μg/ml streptomycin at 37° C. in an atmosphere of 5% CO2 in air. Cells (3×10^4 cells/well) were seeded in 96 well-plates and incubated with increasing concentrations of DEX or DOX in the presence or absence of NM-3. NM-3 was added at concentrations of 0, 50, 100 and 200 μg/ml 2 hours before the addition of DOX or DEX. After 24 hours of DOX or DEX exposure, 10 μl of MTT reagent (Roche Molecular Biochemicals, final concentration 0.5 mg/ml) was added to each well and allowed to incubate for 4 hours. After the incubation, 100 μl of solubilization solution (10% sodium dodecyl sulfate in 0.01M HCl) was added to each well and allowed to incubate overnight. Optical density at 565 nm was determined using a spectrophotometer (Molecular Devices Corp.).
(§2) The effects of NM-3 in combination with dexamethasone on the viability of RPM18662 and U266 human multiple meyeloma cells were investigated. Experimental conditions were as described in Example 11, with the exception that cells were seeded at 6×10^3 cells/well and the cells were incubated with the appropriate concentrations of NM-3 and DEX for either 48 or 72 hours prior to addition of the MTT reagent.

[5] = test system: RPMI8662 cells; test: Cell viability by MTT assay; format: cell-based, human
Procedure: as §1, §2

[6] = test system: human tumor cells and normal mouse cells; test: Cell growth (WST-1), summary over all cell lines; format: cell-based
Procedure: To determine the extent to which NM-3 [2-(8-hydroxy-6-methoxy-1-oxo-1H-2-benzopyran-3-yl) propionic acid] inhibited the proliferation of, or was cytotoxic toward, human tumor cells and normal mouse cells, a variety of cell lines were grown in the presence of NM-3. The human cell lines used were K562 (leukemia cells), HT29 (colon tumor cells) HT1080 (reticulum blast sarcoma cells), and MCF7 (breast tumor cells). The mouse cells used were NIH3T3 cells (fibroblasts). All cell lines were cultured in 96-well plates to a density of 2-5×10^3 cells/well. Culture medium (RPMI 1640 plus 10% FBS) alone or containing NM-3 at one of several concentrations tested was then added to the cultures which were allowed to grow for an additional 3 days. To assess cell growth, 10 μl of WST-1 reagent (a chromogenic substrate for living cells) was added to each well and incubation continued for 3 hrs at 37° C. Absorbance at 450 nm was then determined using a plate reader.

[7] = test system: MDAMB-435 human breast tumor xenografts; test: MDAMB-435 orthotopic model, NM-3 with paclitaxel, first study; format: in vivo, female NCRNU nude mice; details: NM-3 100 mg/kg I.P. daily alone
Text: In order to determine the effect of the combination of NM-3 with the cytotoxic drug, paclitaxel on human breast tumor xenografts, female NCRNU nude mice were implanted with MDAMB-435 cells into the subaxillary mammary fat pad. […]

[8] = test system: SQ-20B tumors; test: NM-3 and ionizing radiation, tumor growth; format: in vivo, C57BL/6 nude mice
Procedure: The effects of NM-3 and IR on tumor growth were assessed in Lewis Lung Carcinoma (LLC), Seg-1, and SQ-20B tumors implanted in C57BL/6 nude mice.
In experiments conducted using SQ-20B tumors, control tumors grew to 5.2±0.94 times original volume by day 20. […] Animals in these two groups were subsequently sacrificed because of tumor burden. […] By day 38, IR treated tumors regrew to twice original volume.

[9] = NM-3 1 mg/kg p.o. days 1-13, 15-72 alone
[10] = NM-3 5 mg/kg p.o. days 1-13, 15-72 alone
[11] = NM-3 alone, 50 and 100 μg/ml, 72 hours preincubation
[12] = NM-3 alone, 48 hour preincubation

## COc1cc(O)c2c(=O)oc(C(C)C(=O)O)cc2c1 (centres unmarked) [NM-3, 2-(8-hydroxy-6-methoxy-1-oxo-1H-2-benzopyran-3-yl) propionic acid]
[1]; NM-3 alone, 50-200 μg/ml
  Population of cells positive for annexin V and PI (apoptotic cells): did not change the population of cells positive for annexin V and PI
[1]; pretreatment with NM-3, DEX 1 μM, 24 hours
  DEX-induced increase of apoptotic cells: further enhanced
[2]; 0.63 mg/kg p.o.
  Inhibition (%): 33.1%
[2]; 1.25 mg/kg p.o.
  Inhibition (%): 59.5%
  Mean Tumor Weight (mg ± S.D.): 497.7 ± 265.5 mg
[2]; 2.5 mg/kg p.o.
  Inhibition (%): 57.7%
  Mean Tumor Weight (mg ± S.D.): 519.5 ± 319.3 mg
[2]; 5 mg/kg p.o.
  Inhibition (%): 52.0%
  Mean Tumor Weight (mg ± S.D.): 589.7 ± 338.3 mg
[2]; 1.25 to 5 mg/kg p.o.
  Tumor size versus control: significantly reduced in size
[3]; [9]
  Mean Survival Days (days ± S.D.): 33.9 ± 13.6 days
  T/C (%): 102.7%
[3]; [10]
  Mean Survival Days (days ± S.D.): 23.5 ± 3.7 days
  T/C (%): 71.2%
[3]; NM-3 alone, 1 or 5 mg/kg
  Survival times versus control: did not increase survival times
[4]; 48 or 72 hours
  Potentiation of DEX-induced cell death: potentiated DEX-induced cell death
[4]; [11]
  Decrease in cell viability: less evident
[4]; [12]
  Cell viability: dose dependent decrease in cell viability
[5]; 48 or 72 hours
  Potentiation of DEX-induced cell death: potentiated DEX-induced cell death
[5]; [11]
  Decrease in cell viability: less evident
[5]; [12]
  Cell viability: dose dependent decrease in cell viability
[6]
  IC50: > 100 µg/mL
[7]
  % Tumor Growth Inhibition: 15.29%
  Final Tumor Wt. (mg) +/− SEM: 180.0 ± 18.13 mg
[7]; n 9
  Mice with Complete Shrinkage: 0
[8]; NM-3 alone, day 20
  Tumor volume: 4.3±1.03 times original volume
[8]; NM-3 and IR (65 Gy), by day 6
  Tumor size: doubled in size
[8]; NM-3 and IR (65 Gy), by day 38, p=0.006 vs IR alone
  Tumor regrowth: failed to reach original volume
[8]; NM-3 and IR (65 Gy), day 23
  Tumor volume, % of original volume: 77%
